From PubChem BioAssay (NCI)
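A five-concentration, 48-hour dose response in 96-well plates underlies each endpoint, interpolated linearly between surrounding concentrations. Definition used: TGI = concentration required for complete inhibition of growth.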

What was measured:
Assay in all cases: NCI tumour cell line growth inhibition, 48 h
RPMI-8226 leukemia = test system: RPMI-8226 leukemia
HCT-116 colon = test system: HCT-116 colon
HL-60(TB) leukemia = test system: HL-60(TB) leukemia
OVCAR-4 ovarian = test system: OVCAR-4 ovarian
SNB-75 CNS = test system: SNB-75 CNS
UACC-257 melanoma = test system: UACC-257 melanoma
UACC-62 melanoma = test system: UACC-62 melanoma
MALME-3M melanoma = test system: MALME-3M melanoma
HCT-15 colon = test system: HCT-15 colon
TK-10 renal = test system: TK-10 renal
U251 CNS = test system: U251 CNS
OVCAR-8 ovarian = test system: OVCAR-8 ovarian
M14 melanoma = test system: M14 melanoma
786-0 renal = test system: 786-0 renal
IGROV1 ovarian = test system: IGROV1 ovarian
PC-3 prostate = test system: PC-3 prostate
BT-549 breast = test system: BT-549 breast
DU-145 prostate = test system: DU-145 prostate
NCI/ADR-RES ovarian = test system: NCI/ADR-RES ovarian
T-47D breast = test system: T-47D breast

| SMILES | TGI (RPMI-8226 leukemia) [µM] | TGI (HCT-116 colon) [µM] | TGI (HL-60(TB) leukemia) [µM] | TGI (OVCAR-4 ovarian) [µM] | TGI (SNB-75 CNS) [µM] | TGI (UACC-257 melanoma) [µM] | TGI (UACC-62 melanoma) [µM] | TGI (MALME-3M melanoma) [µM] | TGI (HCT-15 colon) [µM] | TGI (TK-10 renal) [µM] | TGI (U251 CNS) [µM] | TGI (OVCAR-8 ovarian) [µM] | TGI (M14 melanoma) [µM] | TGI (786-0 renal) [µM] | TGI (IGROV1 ovarian) [µM] | TGI (PC-3 prostate) [µM] | TGI (BT-549 breast) [µM] | TGI (DU-145 prostate) [µM] | TGI (NCI/ADR-RES ovarian) [µM] | TGI (T-47D breast) [µM] |
| --- | --- | --- | --- | --- | --- | --- | --- | --- | --- | --- | --- | --- | --- | --- | --- | --- | --- | --- | --- | --- |
| COc1cc(/C=C/C(=O)C(C)(C)C)cc(OC)c1OC | > 100 | > 100 | 53 | > 100 | 68.5 | > 100 | > 100 | > 100 | > 100 | > 100 | > 100 | > 100 | > 100 | > 100 | – | – | – | – | – | – |
| O=[N+]([O-])c1ccc(-c2ccc(C3=Nn4c(nnc4-c4ccc(Cl)cc4)SC3)o2)cc1 | > 100 | > 100 | > 100 | > 100 | > 65.3 | > 100 | > 100 | > 91.6 | > 100 | 53.4 | > 70.7 | > 100 | > 100 | > 100 | > 100 | – | – | – | – | – |
| COC(=O)C1(C(=O)OC)CC2=C(S(=O)(=O)c3ccccc3)C[C@@H](C#N)[C@H]2C1 | – | > 100 | > 100 | > 100 | > 100 | > 100 | – | > 100 | > 100 | > 100 | > 100 | > 100 | > 100 | > 100 | > 100 | > 100 | > 100 | > 100 | > 100 | – |
| Nc1nc(NC(=O)C2=NS(=O)(=O)c3cc(S(N)(=O)=O)c(Cl)cc3N2)n[nH]1 | > 100 | > 100 | – | > 100 | > 100 | > 100 | > 100 | > 100 | > 100 | > 100 | > 100 | – | > 100 | > 100 | > 100 | – | – | – | – | – |
| Cc1cn2cc(-c3ccncc3)nc2s1 | > 90.2 | > 100 | > 41.6 | > 100 | > 100 | > 100 | > 100 | > 100 | > 100 | > 100 | > 100 | > 100 | > 100 | > 100 | > 100 | – | – | – | – | – |
| CC(C)CCC[C@@H](C)[C@H]1CC[C@H]2[C@@H]3CC=C4CC(OCCCCN(O)CCCSC5OC(CO)C(O)C(O)C5O)CC[C@]4(C)[C@H]3CC[C@]12C (some centres not stated) | > 100 | > 100 | > 100 | > 100 | > 100 | > 100 | > 100 | – | > 100 | > 100 | 75.1 | > 100 | 56.3 | 32.5 | 50 | – | – | – | – | – |
| CCC(c1ccc(N(C)C)cc1)C1NC(=S)NC1=O (configuration not stated) | > 100 | > 100 | 46.3 | > 100 | > 100 | > 100 | – | > 100 | > 100 | > 100 | > 100 | > 100 | > 100 | > 100 | > 100 | – | – | > 100 | > 100 | > 100 |
| Cc1ccc(CCNC(=S)SCC(NC(=O)CCC(N)C(=O)O)C(=O)NCC(=O)O)cc1 (configuration not stated) | 1.43 | 6.26 | 2.6 | 7.41 | 3.44 | 4.47 | 3.08 | 4.47 | 3.72 | 9.95 | 4.06 | 4.65 | 2.56 | 1.6 | 4.77 | – | – | – | – | – |
| O=C(N/N=C/c1cc(-c2ccccc2Cl)c(-c2ccccc2Cl)o1)c1ccncc1 | 65.9 | > 100 | > 100 | > 100 | > 100 | > 100 | > 100 | > 100 | – | > 100 | – | – | > 100 | > 100 | > 100 | – | – | – | – | – |
| CC(=O)/C=C\C(=O)NNS(=O)(=O)c1ccc(C)cc1 | > 100 | > 100 | > 100 | > 100 | > 100 | > 100 | > 100 | > 100 | > 100 | > 100 | > 100 | > 100 | > 100 | > 100 | > 100 | – | – | – | – | – |
| CCOc1ccccc1Nc1nc(C)c(C(=O)CC(=O)C(=O)Nc2ccccc2)s1 | – | > 100 | 58.1 | > 100 | 88.6 | > 100 | > 100 | > 100 | > 100 | > 100 | > 100 | > 100 | > 100 | > 100 | > 100 | – | – | – | – | – |
| CC(C)Oc1c(O)c2c3c(oc(=O)n3C=CC2c2ccccc2F)c1OC(C)C (configuration not stated) | 51.9 | 66.7 | 44.3 | > 100 | > 100 | > 100 | > 100 | > 100 | > 100 | > 100 | > 100 | > 100 | 65.4 | > 100 | > 100 | 40.1 | – | > 100 | > 100 | – |
| O=c1[nH]c2cccccc-2c1-c1nc2ccccc2[nH]1 | > 100 | > 100 | > 100 | 51.9 | 30.2 | > 100 | 44.9 | 50.6 | > 100 | > 100 | 68 | 96.7 | > 100 | 41 | > 100 | – | – | – | – | – |
| COc1cc2c(oc(=O)c3c4oc([Si](C)(C)C)cc4cc(OC)c23)c2cccc(O)c12 | > 100 | > 100 | > 100 | > 100 | > 100 | > 100 | > 100 | > 100 | > 100 | > 100 | > 100 | > 100 | > 100 | > 100 | > 100 | – | – | – | – | – |
| COc1ccc(C2Oc3cc(OC)c(O)cc3[C@@H]2C)cc1 (some centres not stated) | 58.2 | 25.9 | 47.4 | > 100 | 96.6 | > 100 | – | > 100 | 35.4 | > 100 | > 100 | 56.6 | 51.2 | 31.3 | – | – | – | – | – | – |
